Laboratory results: patent US8507756B2, “Plant protection” (Plant Bioscience Limited, priority 2007, dated 2013)

What was measured:
[1] = system: Myzus persicae; assay: JA or MeJA seed treatment, tomato plants challenged with aphids; type: in vivo; conditions: tomato cv. Carousel, seed treatment 3.0 mM JA, challenged 10 weeks after sowing
Procedure: Tomato, pepper, maize and wheat seeds were treated with 3 mM JA or 1.5 mM JA solutions or with 3 mM methyl jasmonate (MeJA) or with deionised water containing 42.8 mM ethanol (control) by full submersion of up to 40 seeds in a Petri dish of solution wrapped in foil for a period of 24 hours at 4° C. in a fridge. A temperature of 4° C. was used both to prevent degradation of the jasmonic acid solutions and to prevent germination of the seeds. The seeds were then removed from the treatment solution and washed in 1 liter of deionised water for 5 minutes to remove the JA or MeJA coating the outside of the seeds. Tomato seeds were sown in rockwool blocks and grown on peat-based compost in glass houses at 12° C.-28° C. under artificial light on a 16 hour light and 8 hour dark cycle for 48, 56 or 70 days. Tomato plants were then challenged with Tetranychus urticae (two-spotted spider mite) which were allowed to feed for 9 days, Manduca sexta (tobacco hornworm) caterpillars which were allowed to feed for 4 days or Myzus persicae (aphid), which were allowed to feed for 10 or 12 days. In each case these organisms were restricted to the plant on which they had originally been placed. Pepper plants were challenged with Myzus persicae (aphid), which were allowed to feed for 2 weeks. Maize and wheat plants were challenged with Spodoptera […] caterpillars which were allowed to feed for 2 days (maize) or 3 days (wheat). The effect of Myzus persicae on plants was determined by counting the aphid population on each plant under a dissecting microscope at ×10 magnification. Seeds of a UK commercial F1 hybrid tomato variety (cv. Carousel) were treated with 3.0 mM jasmonic acid (JA) and 42.8 mM ethanol in deionised H2O for a period of 24 hours at 4° C. in the dark. […] Aphids were allowed to feed on the plants for twelve days and the aphid population was measured at intervals over this period. […]

[2] = system: Spodoptera exempta; assay: JA seed treatment, maize plants challenged with Spodoptera exempta caterpillars; type: in vivo; conditions: maize cv. Earligold, seed treatment 1.5 mM JA, 2 days feeding
Procedure: Tomato, pepper, maize and wheat seeds were treated with 3 mM JA or 1.5 mM JA solutions or with 3 mM methyl jasmonate (MeJA) or with deionised water containing 42.8 mM ethanol (control) by full submersion of up to 40 seeds in a Petri dish of solution wrapped in foil for a period of 24 hours at 4° C. in a fridge. A temperature of 4° C. was used both to prevent degradation of the jasmonic acid solutions and to prevent germination of the seeds.
Wheat and maize seeds were sown in peat-based compost and grown in unheated glass houses with supplementary lighting. (600 W SON-T lamps, for 16 hours per day) in the autumn.
Tomato plants were then challenged with Tetranychus urticae (two-spotted spider mite) which were allowed to feed for 9 days, Manduca sexta (tobacco hornworm) caterpillars which were allowed to feed for 4 days or Myzus persicae (aphid), which were allowed to feed for 10 or 12 days. […]
The effect of Manduca sexta or Spodoptera exempta on plants was determined by measurement of the leaf area eaten, measured using a leaf area meter.
Seeds of maize cv. […] Caterpillars were allowed to feed on the plants for 2 days and the area of grazed leaves was then measured. […] When expressed as the area of leaf consumed per unit weight of caterpillars the reduction in plants grown from seed treated with JA was even more pronounced (40%, p<0.001, FIG. 9). […]

## CC/C=C\C[C@H]1C(=O)CC[C@@H]1CC(=O)O [JA, jasmonic acid]
[1]; 12 days feeding
  Aphid population compared with control plants: significant (p<0.05) reduction
[1]; seed dried and stored at 4 C for two months before sowing, 10 days feeding
  Aphid population compared with control plants, treated seed stored before sowing: significant (p<0.05) reduction
[2]; p<0.001
  Area of leaf consumed per unit weight of caterpillars, reduction vs controls: 40%
[2]; tassel stage approx. 10 weeks after seed treatment, p<0.05
  Leaf area consumed by caterpillars, lower than controls: 38%
